Experiments:
JAK1 = JAK1 (Homo sapiens (Human), UniProt P23458); test: Jak Biochemical HTRF Assay (JAK1); settings: recombinant GST-tagged catalytic domain, [ATP] 31.8 μM, unit not given (compound concentrations tested given in nM)
Description: Jak Biochemical HTRF Assay Protocol
Subsequent reagent additions employed an Agilent Bravo.

JAK2 = JAK2 (Homo sapiens (Human), UniProt O60674); test: Jak Biochemical HTRF Assay (JAK2); settings: read-out: JAK2 IC50, recombinant GST-tagged catalytic domain, [ATP] 8.5 μM, unit not given (compound concentrations tested given in nM)
Chain of JAK2 (O60674 849-1124): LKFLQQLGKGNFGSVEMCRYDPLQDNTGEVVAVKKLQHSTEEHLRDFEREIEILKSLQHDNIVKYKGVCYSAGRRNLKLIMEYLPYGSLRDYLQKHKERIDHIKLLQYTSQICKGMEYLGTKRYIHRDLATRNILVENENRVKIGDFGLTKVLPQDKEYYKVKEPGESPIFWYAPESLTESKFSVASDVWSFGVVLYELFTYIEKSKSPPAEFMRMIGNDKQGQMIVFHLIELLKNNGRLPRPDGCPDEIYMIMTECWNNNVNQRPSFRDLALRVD

Chain of JAK1 (P23458 875-1153): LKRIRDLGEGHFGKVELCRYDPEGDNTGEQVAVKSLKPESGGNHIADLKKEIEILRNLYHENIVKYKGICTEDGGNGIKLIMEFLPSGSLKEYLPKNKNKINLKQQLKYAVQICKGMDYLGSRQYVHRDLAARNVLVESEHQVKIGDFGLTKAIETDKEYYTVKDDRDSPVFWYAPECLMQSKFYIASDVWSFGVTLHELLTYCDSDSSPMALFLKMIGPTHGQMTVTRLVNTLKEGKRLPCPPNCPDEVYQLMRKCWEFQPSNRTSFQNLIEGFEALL

SMILES	IC50 (JAK1)	IC50 (JAK2)
CN(C)S(=O)(=O)c1ccc(Nc2nn([C@H]3COCC[C@@H]3C#N)c3cc[nH]c(=O)c23)cn1 [Example 1-67, 5-({1-[(3R,4S)-4-cyanotetrahydro-2H-pyran-3-yl]-4-oxo-4,5-dihydro-1H-pyrazolo[4,3-c]pyridin-3-yl}amino)-N,N-dimethylpyridine-2-sulfonamide]	0.7 nM	1.92 nM
Cc1ccc(Nc2nn([C@H]3COCC[C@@H]3C#N)c3cc[nH]c(=O)c23)cc1C [Example 1-68, (3R,4S)-3-{3-[(3,4-dimethylphenyl)amino]-4-oxo-4,5-dihydro-1H-pyrazolo[4,3-c]pyridin-1-yl}tetrahydro-2H-pyran-4-carbonitrile]	0.28 nM	1.83 nM
CC1(C)CN(S(=O)(=O)c2ccc(Nc3nn([C@H]4COCC[C@@H]4C#N)c4cc[nH]c(=O)c34)cc2)CCO1 [Example 1-71, (3R,4S)-3-[3-({4-[(2,2-dimethylmorpholin-4-yl)sulfonyl]phenyl}amino)-4-oxo-4,5-dihydro-1H-pyrazolo[4,3-c]pyridin-1-yl]tetrahydro-2H-pyran-4-carbonitrile]	0.22 nM	0.7 nM
CC1(C)CCCN1S(=O)(=O)c1ccc(Nc2nn([C@H]3COCC[C@@H]3C#N)c3cc[nH]c(=O)c23)cc1 [Example 1-72, (3R,4S)-3-[3-({4-[(2,2-dimethylpyrrolidin-1-yl)sulfonyl]phenyl}amino)-4-oxo-4,5-dihydro-1H-pyrazolo[4,3-c]pyridin-1-yl]tetrahydro-2H-pyran-4-carbonitrile]	0.1 nM	0.2 nM
C[C@@H]1CN(S(=O)(=O)c2ccc(Nc3nn([C@H]4COCC[C@@H]4C#N)c4cc[nH]c(=O)c34)cc2)C[C@H](C)O1 [Example 1-73, (3R,4S)-3-{3-[(4-{[(cis)-2,6-dimethylmorpholin-4-yl]sulfonyl}phenyl)amino]-4-oxo-4,5-dihydro-1H-pyrazolo[4,3-c]pyridin-1-yl}tetrahydro-2H-pyran-4-carbonitrile]	0.35 nM	0.7 nM

Now those with a lower IC50 (JAK1), led by results:

IC50 (JAK1)	IC50 (JAK2)	SMILES
0.09 nM	0.26 nM	CCC(C)(C)S(=O)(=O)c1ccc(Nc2nn([C@H]3COCC[C@@H]3C#N)c3cc[nH]c(=O)c23)cc1 [Example 1-65, (3R,4S)-3-[3-({4-[(1,1-dimethylpropyl)sulfonyl]phenyl}amino)-4-oxo-4,5-dihydro-1H-pyrazolo[4,3-c]pyridin-1-yl]tetrahydro-2H-pyran-4-carbonitrile]
0.08 nM	0.3 nM	N#C[C@H]1CCOC[C@@H]1n1nc(Nc2ccc(S(=O)(=O)N3CCC3)cc2)c2c(=O)[nH]ccc21 [Example 1-69, (3R,4S)-3-(3-{[4-(azetidin-1-ylsulfonyl)phenyl]amino}-4-oxo-4,5-dihydro-1H-pyrazolo[4,3-c]pyridin-1-yl)tetrahydro-2H-pyran-4-carbonitrile]
0.05 nM	0.29 nM	N#C[C@H]1CCOC[C@@H]1n1nc(Nc2ccc3c(c2)CN(CC(F)(F)F)S3(=O)=O)c2c(=O)[nH]ccc21 [Example 1-62, (3R,4S)-3-(3-{[1,1-dioxido-2-(2,2,2-trifluoroethyl)-2,3-dihydro-1,2-benzothiazol-5-yl]amino}-4-oxo-4,5-dihydro-1H-pyrazolo[4,3-c]pyridin-1-yl)tetrahydro-2H-pyran-4-carbonitrile]
0.04 nM	0.3 nM	CC(C)(C)OC(=O)CN1Cc2cc(Nc3nn([C@H]4COCC[C@@H]4C#N)c4cc[nH]c(=O)c34)ccc2S1(=O)=O [Example 1-64, tert-butyl [5-({1-[(3R,4S)-4-cyanotetrahydro-2H-pyran-3-yl]-4-oxo-4,5-dihydro-1H-pyrazolo[4,3-c]pyridin-3-yl}amino)-1,1-dioxido-1,2-benzisothiazol-2(3H)-yl]acetate]
0.04 nM	0.08 nM	CCN(C(C)(C)C)S(=O)(=O)c1ccc(Nc2nn([C@H]3COCC[C@@H]3C#N)c3cc[nH]c(=O)c23)cc1 [Example 1-79, N-(tert-butyl)-4-((1-((3R,4S)-4-cyanotetrahydro-2H-pyran-3-yl)-4-oxo-4,5-dihydro-1H-pyrazolo[4,3-c]pyridin-3-yl)amino)-N-ethylbenzenesulfonamide]

Reference: patent US9957265B2, “N-(2-cyano heterocyclyl) pyrazolo pyridones as janus kinase inhibitors” (Merck Sharp & Dohme Corp., priority 2013, dated 2018)
